{"source": "patent US11542273B2", "about": "“Amide compound having bet proteolysis-inducing action and medicinal application thereof” (MITSUBISHI TANABE PHARMA CORPORATION, priority 2018, dated 2023)", "assay_in_all_cases": "Cytotoxic action on cancer cells (WST-8, 96 hr)", "assay_type_in_all_cases": "cell-based", "key": {"[1]": {"tested_on": "human Burkitt lymphoma Raji cell", "details": "96 hr culture", "method_in_brief": "(§1)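 Viability was read by WST-8 after 96 hr of compound exposure, normalised to untreated wells, with cells pre-cultured overnight in 10% FBS/RPMI1640 at 37 °C and 5% CO2. IC50 comes from a straight line between the two survival points enclosing 50%.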"}, "[2]": {"tested_on": "human T-cell leukemia Jurkat cells", "details": "96 hr culture", "method_in_brief": "as §1"}, "[3]": {"tested_on": "human acute myeloid leukemia MV-4-11 cell", "details": "MV4-11, MV-4-11 cells, 96 hr culture", "method_in_brief": "as §1"}, "[4]": {"tested_on": "human bladder cancer 5637 cell", "details": "5637 cells, 96 hr culture", "method_in_brief": "as §1"}, "[5]": {"tested_on": "human breast cancer ZR-75-1 cell", "details": "ZR-75-1 cells, 96 hr culture", "method_in_brief": "as §1"}, "[6]": {"tested_on": "human castration-resistant prostate cancer PC-3 cell", "details": "PC-3 cells (printed P0-3 in table), 96 hr culture", "method_in_brief": "as §1"}, "[7]": {"tested_on": "human chronic myeloid leukemia K562 cell", "details": "96 hr culture", "method_in_brief": "as §1"}, "[8]": {"tested_on": "human colorectal cancer HCT116 cell", "details": "HCT-116, 96 hr culture", "method_in_brief": "as §1"}, "[9]": {"tested_on": "human diffuse large B-cell lymphoma SU-DHL-6 cell", "details": "SU-DHL-6 cells, 96 hr culture", "method_in_brief": "as §1"}, "[10]": {"tested_on": "human gastric cancer SNU-16 cell", "details": "SNU-16 cells, 96 hr culture", "method_in_brief": "as §1"}, "[11]": {"tested_on": "human glioma U-87 MG cell", "details": "U-87 MG cells, 96 hr culture", "method_in_brief": "as §1"}, "[12]": {"tested_on": "human large cell lung cancer NCI-H460 cell", "details": "96 hr culture", "method_in_brief": "as §1"}, "[13]": {"tested_on": "human liver cancer Hep G2 cell", "details": "HepG2, 96 hr culture", "method_in_brief": "as §1"}, "[14]": {"tested_on": "human multiple myeloma MM.1S cell", "details": "MM1.S, MM.1S cells, 96 hr culture", "method_in_brief": "as §1"}, "[15]": {"tested_on": "human non-small cell lung cancer NCI-H1975 cell", "details": "96 hr culture", "method_in_brief": "as §1"}, "[16]": {"tested_on": "human ovarian cancer A2780 cell", "details": "96 hr culture", "method_in_brief": "as §1"}, "[17]": {"tested_on": "human pancreatic cancer AsPC-1 cell", "details": "ASPC1, AsPC-1 cells, 96 hr culture", "method_in_brief": "as §1"}, "[18]": {"tested_on": "human prostate cancer LNCaP cells", "details": "Homo sapiens, LNCaP, 96 h, read-out: LNCaP cytotoxic activity: IC50", "method_in_brief": "as §1"}, "[19]": {"tested_on": "human small cell lung cancer NCI-H82 cell", "details": "96 hr culture", "method_in_brief": "as §1"}, "[20]": {"tested_on": "human triple negative breast cancer MDA-MB-231 cell", "details": "MDA-MB-231 cells, 96 hr culture", "method_in_brief": "as §1"}, "[21]": {"tested_on": "human uterine sarcoma MES-SA cell", "details": "96 hr culture", "method_in_brief": "as §1"}}}
{"smiles": "COC(=O)C[C@@H]1N=C(c2ccc(N3CC[C@@H](Oc4ccc5oc(C(=O)N[C@H](C(=O)N6C[C@H](O)C[C@H]6C(=O)N[C@@H](C)c6ccc(-c7scnc7C)cc6)C(C)(C)C)cc5c4)C3)cc2)c2c(sc(C)c2C)-n2c(C)nnc21", "note": "[Example 142, methyl [(6S)-4-{4-[(3R)-3-{[2-({(2S)-1-[(2S,4R)-4-hydroxy-2-({(1S)-1-[4-(4-methyl-1,3-thiazol-5-yl)phenyl]ethyl}carbamoyl)pyrrolidin-1-yl]-3,3-dimethyl-1-oxobutan-2-yl}carbamoyl)-1-benzofuran-5-yl]oxy}pyrrolidin-1-yl]phenyl}-2,3,9-trimethyl-6H-thieno[3,2-f][1,2,4]triazolo[4,3-a][1,4]diazepin-6-yl]acetate]", "values": [{"measurement": "IC50", "setting": "[1]", "result": 0.71, "unit": "nM"}, {"measurement": "IC50", "setting": "[2]", "result": 0.36, "unit": "nM"}, {"measurement": "IC50", "setting": "[3]", "result": 0.041, "unit": "nM"}, {"measurement": "IC50", "setting": "[4]", "result": 0.34, "unit": "nM"}, {"measurement": "IC50", "setting": "[5]", "result": 0.49, "unit": "nM"}, {"measurement": "IC50", "setting": "[6]", "result": 0.34, "unit": "nM"}, {"measurement": "IC50", "setting": "[7]", "result": 2.1, "unit": "nM"}, {"measurement": "IC50", "setting": "[8]", "result": 3.9, "unit": "nM"}, {"measurement": "IC50", "setting": "[9]", "result": 0.93, "unit": "nM"}, {"measurement": "IC50", "setting": "[10]", "result": 0.55, "unit": "nM"}, {"measurement": "IC50", "setting": "[11]", "result": 4, "unit": "nM"}, {"measurement": "IC50", "setting": "[12]", "result": 11, "unit": "nM"}, {"measurement": "IC50", "setting": "[13]", "result": 7.4, "unit": "nM"}, {"measurement": "IC50", "setting": "[14]", "result": 0.23, "unit": "nM"}, {"measurement": "IC50", "setting": "[15]", "result": 1.8, "unit": "nM"}, {"measurement": "IC50", "setting": "[16]", "result": 0.27, "unit": "nM"}, {"measurement": "IC50", "setting": "[17]", "result": 5.7, "unit": "nM"}, {"measurement": "IC50", "setting": "[18]", "result": 0.3, "unit": "nM"}, {"measurement": "IC50", "setting": "[19]", "result": 5.9, "unit": "nM"}, {"measurement": "IC50", "setting": "[20]", "result": 0.98, "unit": "nM"}, {"measurement": "IC50", "setting": "[21]", "result": 1.6, "unit": "nM"}]}
{"smiles": "COC(=O)C[C@@H]1N=C(c2ccc(-c3ccc(OCC(=O)N[C@H](C(=O)N4C[C@H](O)C[C@H]4C(=O)N[C@@H](C)c4ccc(-c5scnc5C)cc4)C(C)(C)C)c(C#N)c3)cc2)c2c(sc(C)c2C)-n2c(C)nnc21", "note": "[Example 9, methyl [(6S)-4-{3′-cyano-4′-[2-({(2S)-1-[(2S,4R)-4-hydroxy-2-({(1S)-1-[4-(4-methyl-1,3-thiazol-5-yl)phenyl]ethyl}carbamoyl)pyrrolidin-1-yl]-3,3-dimethyl-1-oxobutan-2-yl}amino)-2-oxoethoxy][1,1′-biphenyl]-4-yl}-2,3,9-trimethyl-6H-thieno[3,2-f][1,2,4]triazolo[4,3-a][1,4]diazepin-6-yl]acetate]", "values": [{"measurement": "IC50", "setting": "[1]", "result": 1.9, "unit": "nM"}, {"measurement": "IC50", "setting": "[2]", "result": 1.2, "unit": "nM"}, {"measurement": "IC50", "setting": "[3]", "result": 0.015, "unit": "nM"}, {"measurement": "IC50", "setting": "[4]", "result": 0.45, "unit": "nM"}, {"measurement": "IC50", "setting": "[5]", "result": 0.96, "unit": "nM"}, {"measurement": "IC50", "setting": "[6]", "result": 1, "unit": "nM"}, {"measurement": "IC50", "setting": "[7]", "result": 2.2, "unit": "nM"}, {"measurement": "IC50", "setting": "[8]", "result": 4.7, "unit": "nM"}, {"measurement": "IC50", "setting": "[9]", "result": 0.57, "unit": "nM"}, {"measurement": "IC50", "setting": "[10]", "result": 3, "unit": "nM"}, {"measurement": "IC50", "setting": "[11]", "result": 9.1, "unit": "nM"}, {"measurement": "IC50", "setting": "[12]", "result": 24, "unit": "nM"}, {"measurement": "IC50", "setting": "[13]", "result": 33, "unit": "nM"}, {"measurement": "IC50", "setting": "[14]", "result": 0.14, "unit": "nM"}, {"measurement": "IC50", "setting": "[15]", "result": 3.7, "unit": "nM"}, {"measurement": "IC50", "setting": "[16]", "result": 0.16, "unit": "nM"}, {"measurement": "IC50", "setting": "[17]", "result": 30, "unit": "nM"}, {"measurement": "IC50", "setting": "[18]", "result": 0.16, "unit": "nM"}, {"measurement": "IC50", "setting": "[19]", "result": 15, "unit": "nM"}, {"measurement": "IC50", "setting": "[20]", "result": 5.7, "unit": "nM"}, {"measurement": "IC50", "setting": "[21]", "result": 2.6, "unit": "nM"}]}
{"smiles": "COC(=O)C[C@@H]1N=C(c2ccc(-c3ccc(C(=O)N[C@H](C(=O)N4C[C@H](O)C[C@H]4C(=O)N[C@@H](C)c4ccc(-c5scnc5C)cc4)C(C)(C)C)c(Cl)c3)cc2)c2c(sc(C)c2C)-n2c(C)nnc21", "note": "[Example 157, methyl {(6S)-4-[3′-chloro-4′-({(2S)-1-[(2S,4R)-4-hydroxy-2-({(1S)-1-[4-(4-methyl-1,3-thiazol-5-yl)phenyl]ethyl}carbamoyl)pyrrolidin-1-yl]-3,3-dimethyl-1-oxobutan-2-yl}carbamoyl)[1,1′-biphenyl]-4-yl]-2,3,9-trimethyl-6H-thieno[3,2-f][1,2,4]triazolo[4,3-a][1,4]diazepin-6-yl}acetate]", "values": [{"measurement": "IC50", "setting": "[1]", "result": 0.59, "unit": "nM"}, {"measurement": "IC50", "setting": "[2]", "result": 0.46, "unit": "nM"}, {"measurement": "IC50", "setting": "[3]", "result": 0.029, "unit": "nM"}, {"measurement": "IC50", "setting": "[4]", "result": 0.33, "unit": "nM"}, {"measurement": "IC50", "setting": "[5]", "result": 2, "unit": "nM"}, {"measurement": "IC50", "setting": "[6]", "result": 0.41, "unit": "nM"}, {"measurement": "IC50", "setting": "[7]", "result": 1.2, "unit": "nM"}, {"measurement": "IC50", "setting": "[8]", "result": 4.5, "unit": "nM"}, {"measurement": "IC50", "setting": "[9]", "result": 0.39, "unit": "nM"}, {"measurement": "IC50", "setting": "[10]", "result": 1.2, "unit": "nM"}, {"measurement": "IC50", "setting": "[11]", "result": 18, "unit": "nM"}, {"measurement": "IC50", "setting": "[12]", "result": 23, "unit": "nM"}, {"measurement": "IC50", "setting": "[13]", "result": 12, "unit": "nM"}, {"measurement": "IC50", "setting": "[14]", "result": 0.081, "unit": "nM"}, {"measurement": "IC50", "setting": "[15]", "result": 2.2, "unit": "nM"}, {"measurement": "IC50", "setting": "[16]", "result": 0.15, "unit": "nM"}, {"measurement": "IC50", "setting": "[17]", "result": 23, "unit": "nM"}, {"measurement": "IC50", "setting": "[18]", "result": 0.4, "unit": "nM"}, {"measurement": "IC50", "setting": "[19]", "result": 4.5, "unit": "nM"}, {"measurement": "IC50", "setting": "[20]", "result": 1.8, "unit": "nM"}, {"measurement": "IC50", "setting": "[21]", "result": 1.7, "unit": "nM"}]}
